Reference: patent US9273003B2, “Methods of treating lymphoma and rheumatoid arthritis with cyclopentyl (2S)-cyclohexyl[({6-[3-(hydroxyamino)-3-oxopropyl]pyridin-3-yl}methyl)amino]acetate” (GlaxoSmithKline Intellectual Property Development Limited, priority 2006, dated 2016)

Experiments:
[1] = tested on: intracellular carboxylesterases (U937 cell extract); assay: Broken cell carboxylesterase assay, U937 cell extract; assay type: in vitro ADME; conditions: ester 2.5 μM, 37° C.
Protocol: Any given compound of the present invention wherein R1 is an ester group may be tested to determine whether it meets the requirement that it be hydrolysed by intracellular esterases, by testing in the following assay.
U937 or Hut78 tumour cells (˜10^9) were washed in 4 volumes of Dulbeccos PBS (˜1 liter) and pelleted at 525 g for 10 min at 4° C. This was repeated twice and the final cell pellet was resuspended in 35 mL of cold homogenising buffer (Trizma 10 mM, NaCl 130 mM, CaCl2 0.5 mM pH 7.0 at 25° C.). Homogenates were prepared by nitrogen cavitation (700 psi for 50 min at 4° C.). The homogenate was kept on ice and supplemented with a cocktail of inhibitors at final concentrations of: • Leupeptin 1 μM • Aprotinin 0.1 μM • E64 8 μM • Pepstatin 1.5 μM • Bestatin 162 μM • Chymostatin 33 μM After clarification of the cell homogenate by centrifugation at 525 g for 10 min, the resulting supernatant was used as a source of esterase activity and was stored at −80° C. until required. Measurement of Ester Cleavage
Hydrolysis of esters to the corresponding carboxylic acids can be measured using the cell extract, prepared as above. To this effect cell extract (˜30 μg/total assay volume of 0.5 ml) was incubated at 37° C. in a Tris-HCl 25 mM, 125 mM NaCl buffer, pH 7.5 at 25° C. At zero time the ester (substrate) was then added at a final concentration of 2.5 μM and the samples were incubated at 37° C. for the appropriate time (usually 0 or 80 min). Reactions were stopped by the addition of 3× volumes of acetonitrile. For zero time samples the acetonitrile was added prior to the ester compound. After centrifugation at 12000 g for 5 min, samples were analysed for the ester and its corresponding carboxylic acid at room temperature by LCMS (Sciex API 3000, HP1100 binary pump, CTC PAL). Chromatography was based on an AceCN (75×2.1 mm) column and a mobile phase of 5-95% acetonitrile in water/0.1% formic acid.
Rates of hydrolysis are expressed in pg/mL/min.

HUT78 cells = assay: HUT cell inhibition assay (WST-1 cell viability); assay type: cell-based; conditions: Homo sapiens; HUT78 cells; IC50 allocated to ranges; read-out: HUT activity
Summary of the method: (§1)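 Log-phase cells seeded at 1000-2000/well, grown 24 h, then exposed to compound for 72-96 h before WST-1 viability readout. Eight concentrations (top 10 μM final, 3-fold steps), 6 replicates; % inhibition versus DMSO, IC50 by sigmoidal variable-slope fit.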

HeLa cells = assay: HeLa cell inhibition assay (sulphorhodamine B cell viability); assay type: cell-based; conditions: Homo sapiens, IC50 allocated to ranges
[2] = molecular target: histone deacetylase activity (HeLa nuclear extract); assay: HDAC fluorescent activity assay (Fluor de Lys, Biomol); assay type: biochemical; conditions: IC50 allocated to ranges, read-out: HDAC activity
Summary of the method: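 HeLa nuclear extract as HDAC source incubated with acetyl-lysine Fluor de Lys substrate ± inhibitor; developer then releases fluorophore from deacetylated substrate. Activity as % of vehicle control after no-enzyme background subtraction; IC50 from eight-point variable-slope sigmoidal fit.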

U937 cells = assay: U937 cell inhibition assay (WST-1 cell viability); assay type: cell-based; conditions: Homo sapiens, U-937; U937 cells; IC50 allocated to ranges; read-out: U937 activity
Summary of the method: as §1

Compound | Hydrolysis Rate Range U937 Cells [1] [pg/mL/min] | IC50 (HUT78 cells) [nM] | IC50 (HeLa cells) [nM] | IC50 [2] [nM] | IC50 (U937 cells) [nM]
Cc1ccc(NCc2cnc3nc(N)nc(N)c3c2C)cc1 [drawing 92] | 1000 to 50000 |  |  |  | 
Cc1ccc2cc(C(=O)NO)sc2c1 [drawing 87] | >50000 |  |  |  | 
Cc1ccc2cc(C(=O)NO)sc2c1 [drawing 101] | >50000 |  |  |  | 
COc1cc2c(Oc3ccc(NC(=O)c4ccccc4)cc3)ccnc2cc1C | 100 to 1000 |  |  |  | 
Cc1ccc(NCc2cnc3nc(N)nc(N)c3c2C)cc1 [drawing 94] | 1000 to 50000 |  |  |  | 
Cc1ccc2cc(C(=O)NO)sc2c1 [drawing 84] | 1000 to 50000 |  |  |  | 
Cc1ccc2cc(C(=O)NO)sc2c1 [drawing 98] | >50000 |  |  |  | 
Cc1ccc(NCc2cnc3nc(N)nc(N)c3c2C)cc1 [drawing 90] | >50000 |  |  |  | 
Cc1ccc(NCc2cnc3nc(N)nc(N)c3c2C)cc1 [drawing 96] | >50000 |  |  |  | 
O=C(/C=C/c1cccc(CN[C@H](C(=O)OC2CCCC2)c2ccccc2)c1)NO [Example 13, Cyclopentyl (2S)-({3-[(1E)-3-(hydroxyamino)-3-oxoprop-1-en-1-yl]benzyl}amino)(phenyl)acetate] |  | 331 to 3300 | > 3300 | > 1000 | > 3300
O=C(/C=C/c1cccc(C(=O)N[C@H](C(=O)OC2CCCC2)c2ccccc2)c1)NO [Example 6, Cyclopentyl (2S)-({3-[(1E)-3-(hydroxyamino)-3-oxoprop-1-en-1-yl]benzoyl}amino)(phenyl)acetate] |  | 331 to 3300 | > 3300 | 101 to 1000 | 331 to 3300
CC(C)C[C@H](NCCCOc1ccc(/C=C/C(=O)NO)cc1)C(=O)OC1CCCC1 [Example 11, Cyclopentyl N-(3-{4-[(1E)-3-(hydroxyamino)-3-oxoprop-1-en-1-yl]phenoxy}propyl)-L-leucinate] |  | 331 to 3300 | > 3300 | 101 to 1000 | 331 to 3300
